Measurements from patent US20260250325A1, “Antiviral Polypeptide Membrane Fusion Inhibitor, and Preparation Method and Application Thereof” (priority 2025, published 2026).
Read-outs that look alike come from different tables or passages of the source. Where a SMILES comes first, the peptide text is derived from it. The star is where a group is joined. X1 = CC(C)CCCC(C)C1CCC2C3CC=C4CC(OC(=O)CCC(=O)*)CCC4(C)C3CCC12C

Assays:
RSV A long virus strain = assay type: cell-based
In short: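 Plaque reduction in HEp-2 cells: virus (100 PFU/well) and serially diluted compound (8 concentrations) mixed 1 h, adsorbed 2 h, then overlaid with 0.8% CMC medium plus compound for 1 day at 37 °C. Spots counted after anti-RSV immunostaining; IC50 from normalized inhibition, CC50 from viability data.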

[1] = Cytotoxicity test in HEp-2 cells (CCK8 cell viability); assay type: cell-based; details: human
In short: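 Compound dilutions (final DMSO 0.5%) were applied for 1 day to HEp-2 cells plated at 30,000 per well the day before. CCK8 signal gave survival relative to cell and medium controls, and a four-parameter log(inhibitor)-response fit yielded CC50.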

[2] = RSV A long virus strain, HEp-2 cells, plaque reduction, 1 day, read-out: IC50
[3] = HEp-2 cells, CCK8, 1 day, read-out: CC50

Row | IC50 (RSV A long virus strain) | Compound | IC50 (RSV A long virus strain; [2]) | CC50 at 1 day [1, 3] | CC50 at 1 day [1]
1 |  | CC[C@H](C)[C@H](NC(C)=O)C(=O)N[C@@H](CCC(=O)O)C(=O)N[C@@H](CCC(N)=O)C(=O)N[C@H](C(=O)N[C@@H](CC(N)=O)C(=O)N[C@@H](CCCCN)C(=O)N[C@@H](CCCCN)C(=O)N[C@H](C(=O)N[C@@H](CCC(=O)O)C(=O)N[C@@H](CCC(N)=O)C(=O)N[C@@H](CO)C(=O)N[C@@H](CC(C)C)C(=O)N[C@@H](CCCCN)C(=O)N[C@@H](Cc1ccccc1)C(=O)N[C@H](C(=O)N[C@@H](CCC(=O)O)C(=O)N[C@@H](CCCCN)C(=O)N[C@@H](CO)C(=O)N[C@@H](CC(=O)O)C(=O)N[C@@H](CCCCN)C(=O)N[C@@H](CC(C)C)C(=O)N[C@@H](CC(C)C)C(=O)N[C@@H](CCC(=O)O)C(=O)N[C@@H](CC(N)=O)C(=O)N[C@H](C(=O)N[C@@H](CC(N)=O)C(=O)N[C@@H](CCCCN)C(=O)NCC(=O)N[C@@H](CCCCN)C(N)=O)C(C)C)[C@@H](C)CC)[C@@H](C)CC)C(C)C [Positive polypeptide 2, reference compound] (Ac-IEQVNKKIEQSLKFIEKSDKLLENVNKGK-NH2) | > 0.3 µM | > 10 µM | 
2 |  | CC[C@H](C)[C@H](NC(=O)[C@H](CCCCN)NC(=O)[C@H](CCCCN)NC(=O)[C@H](CC(C)C)NC(=O)[C@H](CO)NC(=O)[C@H](CCC(=O)O)NC(=O)[C@H](CCC(=O)O)NC(=O)[C@@H](NC(=O)[C@H](CCCCN)NC(=O)[C@H](CCCCN)NC(=O)[C@H](CC(N)=O)NC(=O)[C@@H](NC(=O)[C@H](CCC(=O)O)NC(=O)[C@H](CCC(=O)O)NC(=O)[C@@H](NC(=O)[C@H](CCCCN)NC(=O)[C@H](CCCCN)NC(=O)[C@H](CC(=O)O)NC(=O)[C@H](Cc1ccccc1)NC(=O)[C@H](CCC(=O)O)NC(=O)[C@H](CC(=O)O)NC(=O)[C@H](Cc1c[nH]c2ccccc12)NC(C)=O)[C@@H](C)CC)C(C)C)[C@@H](C)CC)C(=O)N[C@@H](CCC(=O)O)C(=O)N[C@@H](CCC(=O)O)C(=O)N[C@@H](CO)C(=O)N[C@@H](CC(=O)O)C(=O)N[C@@H](CCCCN)C(=O)N[C@@H](CCCCN)C(=O)N[C@@H](CC(C)C)C(=O)N[C@@H](CCC(=O)O)C(=O)N[C@@H](CCC(=O)O)C(=O)N[C@H](C(=O)N[C@@H](CC(N)=O)C(=O)N[C@@H](CCCCN)C(=O)N[C@@H](CCCCN)C(=O)N[C@@H](CC(C)C)C(N)=O)C(C)C [Compound 5] (Ac-WDEFDKKIEEVNKKIEESLKKIEESDKKLEEVNKKL-NH2) | 1.12 µM | > 8 µM | 
3 |  | CC[C@H](C)[C@H](NC(=O)[C@H](CCCCN)NC(=O)[C@H](CC(=O)O)NC(=O)[C@H](CO)NC(=O)[C@H](CCC(N)=O)NC(=O)[C@H](CCCCN)NC(=O)[C@H](CCCCN)NC(=O)[C@H](CC(C)C)NC(=O)[C@H](CO)NC(=O)[C@H](CCC(N)=O)NC(=O)[C@H](CCCCN)NC(=O)[C@H](CCC(=O)O)NC(=O)[C@H](CCC(=O)O)NC(=O)[C@H](CCC(=O)O)NC(=O)[C@@H](NC(=O)[C@H](CCCCN)NC(=O)[C@H](CCCCN)NC(=O)[C@H](CC(N)=O)NC(=O)[C@@H](NC(C)=O)C(C)C)[C@@H](C)CC)C(=O)N[C@@H](CCC(=O)O)C(=O)N[C@@H](CCC(=O)O)C(=O)N[C@@H](CO)C(=O)N[C@@H](CC(=O)O)C(=O)N[C@@H](CCC(=O)O)C(=O)N[C@@H](CC(N)=O)C(=O)N[C@@H](CCC(=O)O)C(=O)N[C@@H](C)C(=O)N[C@@H](C)C(=O)N[C@@H](C)C(=O)N[C@@H](CCCCN)C(=O)N[C@@H](CCCCNC(=O)CCC(=O)OC1CCC2(C)C(=CCC3C2CCC2(C)C(C(C)CCCC(C)C)CCC32)C1)C(N)=O (some centres unmarked) [Compound 36] (Ac-VNKKIEEEKQSLKKQSDKIEESDENEAAAKK(X1)-NH2) | 6.82 µM | > 8 µM | 
4 | > 8 µM | CC[C@H](C)[C@H](NC(=O)[C@H](CCCCN)NC(=O)[C@H](CCCCN)NC(=O)[C@H](CC(C)C)NC(=O)[C@@H](NC(=O)[C@H](CCC(=O)O)NC(=O)[C@H](CCC(=O)O)NC(=O)[C@@H](NC(=O)[C@H](CCCCN)NC(=O)[C@H](CCC(=O)O)NC(=O)[C@H](CC(N)=O)NC(=O)[C@@H](NC(=O)[C@H](CCC(=O)O)NC(=O)[C@H](CC(N)=O)NC(=O)[C@@H](NC(=O)[C@H](CCCCN)NC(=O)[C@H](CCC(N)=O)NC(=O)[C@H](CC(N)=O)NC(=O)[C@H](Cc1ccccc1)NC(=O)[C@H](CCC(=O)O)NC(=O)[C@H](CC(=O)O)NC(=O)[C@H](CC(=O)O)NC(C)=O)[C@@H](C)CC)C(C)C)[C@@H](C)CC)[C@@H](C)CC)C(=O)N[C@@H](CCC(=O)O)C(=O)N[C@@H](CCC(=O)O)C(=O)N[C@@H](CO)C(=O)N[C@@H](CC(=O)O)C(=O)N[C@@H](CCCNC(=N)N)C(=O)N[C@@H](CCCCN)C(=O)N[C@@H](CC(C)C)C(=O)N[C@@H](CCC(=O)O)C(=O)N[C@@H](CCC(=O)O)C(=O)N[C@@H](CO)C(=O)N[C@@H](CC(=O)O)C(=O)N[C@@H](CCCCN)C(=O)N[C@@H](CCCCN)C(=O)N[C@@H](C)C(N)=O [Compound 2] (Ac-DDEFNQKINEVNEKIEEILKKIEESDRKLEESDKKA-NH2) |  |  | > 8 µM
5 |  | Ac-FDFDEFDASISQVNEKINESLAFIRLAFIRKSDELLEAAAKK-NH2 [Compound 24] | 2.65 µM | > 8 µM | 
6 |  | CC[C@H](C)[C@H](NC(=O)[C@H](CCCNC(=N)N)NC(=O)[C@H](CCCNC(=N)N)NC(=O)[C@H](CCCNC(=N)N)NC(=O)[C@H](CC(N)=O)NC(=O)[C@@H](NC(=O)[C@H](CCC(=O)O)NC(=O)[C@H](Cc1ccccc1)NC(C)=O)C(C)C)C(=O)N[C@@H](CCC(=O)O)C(=O)N[C@@H](CCC(N)=O)C(=O)N[C@@H](CO)C(=O)N[C@@H](CC(C)C)C(=O)N[C@@H](CCC(=O)O)C(=O)N[C@@H](CCCCN)C(=O)N[C@@H](CO)C(=O)N[C@@H](CC(C)C)C(=O)N[C@@H](CCC(=O)O)C(=O)N[C@@H](CO)C(=O)N[C@@H](CC(C)C)C(=O)N[C@@H](CCC(=O)O)C(=O)N[C@@H](CCC(=O)O)C(=O)N[C@@H](CCC(=O)O)C(=O)N[C@@H](CCC(=O)O)C(=O)N[C@@H](Cc1c[nH]cn1)C(=O)N[C@@H](CO)C(=O)N[C@@H](CC(=O)O)C(=O)N[C@@H](CCCCN)C(=O)N[C@@H](CCCCN)C(=O)N[C@@H](CC(C)C)C(=O)N[C@@H](Cc1c[nH]cn1)C(=O)N[C@@H](CC(N)=O)C(=O)N[C@@H](CCC(=O)O)C(=O)N[C@@H](CC(C)C)C(=O)N[C@@H](Cc1c[nH]cn1)C(N)=O [Compound 46] (Ac-FEVNRRRIEQSLEKSLESLEEEEHSDKKLHNELH-NH2) | > 8 µM | > 8 µM | 
7 |  | CC[C@H](C)[C@H](NC(=O)[C@H](CO)NC(=O)[C@H](C)NC(=O)[C@H](CC(=O)O)NC(=O)[C@H](Cc1ccccc1)NC(C)=O)C(=O)N[C@@H](CCC(=O)O)C(=O)N[C@@H](CCC(=O)O)C(=O)N[C@H](C(=O)N[C@@H](CC(N)=O)C(=O)N[C@@H](CCCNC(=N)N)C(=O)N[C@@H](CCCNC(=N)N)C(=O)N[C@H](C(=O)N[C@@H](CCC(=O)O)C(=O)N[C@@H](CCC(=O)O)C(=O)N[C@@H](CO)C(=O)N[C@@H](CC(C)C)C(=O)N[C@@H](CCCNC(=N)N)C(=O)N[C@@H](CCCNC(=N)N)C(=O)N[C@H](C(=O)N[C@@H](CCC(=O)O)C(=O)N[C@@H](CCC(=O)O)C(=O)N[C@@H](CO)C(=O)N[C@@H](CC(=O)O)C(=O)N[C@@H](CCCNC(=N)N)C(=O)N[C@@H](CCCNC(=N)N)C(=O)N[C@@H](CC(C)C)C(=O)N[C@@H](CCC(=O)O)C(=O)N[C@@H](C)C(=O)N[C@@H](C)C(=O)N[C@@H](C)C(=O)N[C@@H](CCCCN)C(=O)N[C@@H](CCCCNC(=O)CCC(=O)OC1CCC2(C)C(=CCC3C2CCC2(C)C(C(C)CCCC(C)C)CCC32)C1)C(N)=O)[C@@H](C)CC)[C@@H](C)CC)C(C)C (some centres unmarked) [Compound 19] (Ac-FDASIEEVNRRIEESLRRIEESDRRLEAAAKK(X1)-NH2) | 0.0162 µM | 8.3 µM | 
